# Reference: patent publication US8455475B2 (Gruenenthal GmbH, priority 2009, dated 2013)
# Biological target: T1, rat B1R (bradykinin receptor 1) (Rattus norvegicus, UniProt P97583)
# T1 construct: expressed in transfected cells; host or cells: CHO K1 cells
# T1 sequence (P97583 1-337): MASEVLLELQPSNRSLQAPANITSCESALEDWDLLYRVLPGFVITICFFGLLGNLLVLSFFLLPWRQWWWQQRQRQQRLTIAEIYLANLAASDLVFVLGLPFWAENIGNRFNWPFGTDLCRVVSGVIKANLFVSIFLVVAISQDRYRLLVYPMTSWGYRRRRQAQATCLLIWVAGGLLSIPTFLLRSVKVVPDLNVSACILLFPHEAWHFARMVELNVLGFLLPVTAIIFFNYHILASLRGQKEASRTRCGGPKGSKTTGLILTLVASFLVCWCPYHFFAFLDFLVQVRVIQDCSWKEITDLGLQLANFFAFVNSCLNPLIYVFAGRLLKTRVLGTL
# Assay: FLIPR Ca2+ assay (Fluo-4) on CHO K1 cells stably transfected with the B1R gene of the rat (rB1R cells): % inhibition at 10 μM / IC50, agonist Des-Arg9-bradykinin
# Assay type: cell-based
# Settings: CHO-K1, rat B1R
# Procedure, shortened: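 Stably transfected CHO K1 cells loaded with Fluo-4 and read on FLIPR (λex 488, λem 540 nm; peak fluorescence). Test substance (10 μM) added first, then after 10–20 min the agonist at EC80; % inhibition versus maximum achievable inhibition. IC50 from several concentrations, n=2–3, N≥2.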
row,SMILES,inhibition at 10 µM [%]
1,"O=C(NC1CCCCC1)N1CCC2(CC1)CCN(C(=O)c1ccc3c(c1)C(N(C(=O)c1ccccc1Cl)C1CC1)CC3)C2 (centres unmarked) [IND_CC-717, 2-[3-[(2-Chloro-benzoyl)-cyclopropyl-amino]-2,3-dihydro-1H-indene-5-carbonyl]-N-cyclohexyl-2,8-diazaspiro[4.5]decane-8-carboxylic acid amide]",72
2,"CN(C(=O)c1ccccc1Cl)C1CCc2ccc(C(=O)N3CCC4(CCN(C(=O)CC(C)(C)C)CC4)C3)cc21 (centres unmarked) [IND_CC-590, 2-Chloro-N-[6-[8-(3,3-dimethyl-butanoyl)-2,8-diazaspiro[4.5]decane-2-carbonyl]-2,3-dihydro-1H-inden-1-yl]-N-methyl-benzamide]",86
3,"O=C(c1ccc2c(c1)C(NS(=O)(=O)c1cccc(C(F)(F)F)c1)CC2)N1CCC2(CC1)CCN(c1ccncc1)C2 (centres unmarked) [IND_CC-329, N-[6-(2-Pyridin-4-yl-2,8-diazaspiro[4.5]decane-8-carbonyl)-2,3-dihydro-1H-inden-1-yl]-3-(trifluoromethyl)-benzenesulfonic acid amide]",97
4,"O=C(c1ccc2c(c1)C(NS(=O)(=O)c1cccc(C(F)(F)F)c1)CC2)N1CCC2(CC1)CCN(c1ccncc1)CC2 (centres unmarked) [IND_CC-328, N-[6-(9-Pyridin-4-yl-3,9-diazaspiro[5.5]undecane-3-carbonyl)-2,3-dihydro-1H-inden-1-yl]-3-(trifluoromethyl)-benzenesulfonic acid amide]",98
5,"O=C(NC1CCc2ccc(C(=O)N3CCC4(CCN(c5ccncc5)CC4)C3)cc21)c1cnccn1 (centres unmarked) [IND_CC-398, N-[6-(8-Pyridin-4-yl-2,8-diazaspiro[4.5]decane-2-carbonyl)-2,3-dihydro-1H-inden-1-yl]-pyrazine-2-carboxylic acid amide]",88
6,"Cc1ccc(C(=O)NC2CC(C)(C)c3ccc(C(=O)N4CCC5(CC4)CCN(c4ccncc4)CC5)cc32)c(F)c1 (centres unmarked) [IND_CC-318, N-[3,3-Dimethyl-6-(3-pyridin-4-yl-3,9-diazaspiro[5.5]undecane-9-carbonyl)-1,2-dihydro-inden-1-yl]-2-fluoro-4-methyl-benzamide]",100
7,"Cn1ccc2cc(S(=O)(=O)N3CCC4(CCN(C(=O)c5ccc6c(c5)C(N(C(=O)c5ccccc5Cl)C5CC5)CC6)C4)CC3)ccc21 (centres unmarked) [IND_CC-619, 2-Chloro-N-cyclopropyl-N-[6-[8-[(1-methyl-1H-indol-5-yl)sulfonyl]-2,8-diazaspiro[4.5]decane-2-carbonyl]-2,3-dihydro-1H-inden-1-yl]-benzamide]",57
8,"O=C(c1ccc2c(c1)C(NS(=O)(=O)c1c(Cl)cccc1Cl)CC2)N1CCC2(CCN(c3ccncc3)CC2)C1 (centres unmarked) [IND_CC-333, 2,6-Dichloro-N-[6-(8-pyridin-4-yl-2,8-diazaspiro[4.5]decane-2-carbonyl)-2,3-dihydro-1H-inden-1-yl]-benzenesulfonic acid amide]",92
9,"N#Cc1cccc(NC(=O)N2CCC3(CC2)CCN(C(=O)c2ccc4c(c2)C(N(C(=O)c2ccccc2Cl)C2CC2)CC4)C3)c1 (centres unmarked) [IND_CC-715, 2-[3-[(2-Chloro-benzoyl)-cyclopropyl-amino]-2,3-dihydro-1H-indene-5-carbonyl]-N-(3-cyano-phenyl)-2,8-diazaspiro[4.5]decane-8-carboxylic acid amide]",79
10,"O=C(NC1CCc2ccc(C(=O)N3CCC4(CCN(c5ccncc5)CC4)C3)cc21)C1CCCCC1 (centres unmarked) [IND_CC-367, N-[6-(8-Pyridin-4-yl-2,8-diazaspiro[4.5]decane-2-carbonyl)-2,3-dihydro-1H-inden-1-yl]-cyclohexanecarboxylic acid amide]",104
11,"O=C(NC1CCc2ccc(C(=O)N3CCC4(CC3)CCN(c3ccncc3)C4)cc21)c1ccc(F)cc1C(F)(F)F (centres unmarked) [IND_CC-381, 4-Fluoro-N-[6-(2-pyridin-4-yl-2,8-diazaspiro[4.5]decane-8-carbonyl)-2,3-dihydro-1H-inden-1-yl]-2-(trifluoromethyl)-benzamide]",104
12,"N#Cc1cc(S(=O)(=O)N2CCC3(CCN(C(=O)c4ccc5c(c4)C(N(C(=O)c4ccccc4Cl)C4CC4)CC5)C3)CC2)ccc1F (centres unmarked) [IND_CC-617, 2-Chloro-N-[6-[8-[(3-cyano-4-fluoro-phenyl)sulfonyl]-2,8-diazaspiro[4.5]-decane-2-carbonyl]-2,3-dihydro-1H-inden-1-yl]-N-cyclopropyl-benzamide]",67

# More lines, now with the values ahead:
row,inhibition at 10 µM [%],SMILES
1,72,"O=C(c1ccc2c(c1)C(N(C(=O)c1ccccc1Cl)C1CC1)CC2)N1CCC2(CCN(Cc3c(F)cccc3F)CC2)C1 (centres unmarked) [IND_CC-520, 2-Chloro-N-cyclopropyl-N-[6-[8-[(2,6-difluoro-phenyl)-methyl]-2,8-diazaspiro[4.5]decane-2-carbonyl]-2,3-dihydro-1H-inden-1-yl]-benzamide]"
2,101,"O=C(NC1CCc2ccc(C(=O)N3CCC4(CC3)CCN(C(=O)C3CC3)CC4)cc21)c1ccccc1Cl (centres unmarked) [IND_CC-597, 2-Chloro-N-[6-[9-(cyclopropanecarbonyl)-3,9-diazaspiro[5.5]undecane-3-carbonyl]-2,3-dihydro-1H-inden-1-yl]-benzamide]"
3,67,"O=C(NC1CCc2ccc(C(=O)N3CCC4(CCN(Cc5ccc(F)c(F)c5)CC4)C3)cc21)c1cc(Cl)ccc1F (centres unmarked) [IND_CC-621, 5-Chloro-N-[6-[8-[(3,4-difluoro-phenyl)-methyl]-2,8-diazaspiro[4.5]decane-2-carbonyl]-2,3-dihydro-1H-inden-1-yl]-2-fluoro-benzamide]"
4,75,"CCC(CC)CN1CCC2(CC1)CCN(C(=O)c1ccc3c(c1)C(NC(=O)c1cc(C(F)(F)F)ccc1Cl)CC3)CC2 (centres unmarked) [IND_CC-699, 2-Chloro-N-[6-[9-(2-ethyl-butyl)-3,9-diazaspiro[5.5]undecane-3-carbonyl]-2,3-dihydro-1H-inden-1-yl]-5-(trifluoromethyl)-benzamide]"
5,95,"Cc1noc(C)c1CN1CCC2(CC1)CCN(C(=O)c1ccc3c(c1)C(NC(=O)c1ccccc1Cl)CC3)C2 (centres unmarked) [IND_CC-560, 2-Chloro-N-[6-[8-[(3,5-dimethyl-isoxazol-4-yl)-methyl]-2,8-diazaspiro[4.5]decane-2-carbonyl]-2,3-dihydro-1H-inden-1-yl]-benzamide]"
6,64,"O=C(NC1CCc2ccc(C(=O)N3CCC4(CCN(CC5CCCCC5)CC4)CC3)cc21)c1cc(C(F)(F)F)ccc1Cl (centres unmarked) [IND_CC-700, 2-Chloro-N-[6-[9-(cyclohexyl-methyl)-3,9-diazaspiro[5.5]undecane-3-carbonyl]-2,3-dihydro-1H-inden-1-yl]-5-(trifluoromethyl)-benzamide]"
7,87,"O=C(NC1CCc2ccc(C(=O)N3CCC4(CCN(Cc5ccc6ncccc6c5)CC4)CC3)cc21)c1cccc(Cl)c1Cl (centres unmarked) [IND_CC-754, 2,3-Dichloro-N-[6-[9-(quinolin-6-yl-methyl)-3,9-diazaspiro[5.5]undecane-3-carbonyl]-2,3-dihydro-1H-inden-1-yl]-benzamide]"
8,57,"N#Cc1ccccc1CN1CCC2(CC1)CCN(C(=O)c1ccc3c(c1)C(NC(=O)c1cc(C(F)(F)F)ccc1Cl)CC3)CC2 (centres unmarked) [IND_CC-668, 2-Chloro-N-[6-[9-[(2-cyano-phenyl)-methyl]-3,9-diazaspiro[5.5]undecane-3-carbonyl]-2,3-dihydro-1H-inden-1-yl]-5-(trifluoromethyl)-benzamide]"
9,55,"CN(C(=O)c1ccccc1Cl)C1CCc2ccc(C(=O)N3CCC4(CCN(Cc5ccc(F)cc5F)CC4)C3)cc21 (centres unmarked) [IND_CC-551, 2-Chloro-N-[6-[8-[(2,4-difluoro-phenyl)-methyl]-2,8-diazaspiro[4.5]decane-2-carbonyl]-2,3-dihydro-1H-inden-1-yl]-N-methyl-benzamide]"
10,93,"Cn1cccc1CN1CCC2(CC1)CCN(C(=O)c1ccc3c(c1)C(NC(=O)c1c(F)cccc1Cl)CC3)CC2 (centres unmarked) [IND_CC-787, 2-Chloro-6-fluoro-N-[6-[9-[(1-methyl-1H-pyrrol-2-yl)-methyl]-3,9-diazaspiro[5.5]undecane-3-carbonyl]-2,3-dihydro-1H-inden-1-yl]-benzamide]"
11,91,"O=C(NC1CCc2ccc(C(=O)N3CCC4(CC3)CCN(C(=O)c3cnccn3)CC4)cc21)c1ccccc1Cl (centres unmarked) [IND_CC-594, 2-Chloro-N-[6-[9-(pyrazine-2-carbonyl)-3,9-diazaspiro[5.5]undecane-3-carbonyl]-2,3-dihydro-1H-inden-1-yl]-benzamide]"
12,82,"N#Cc1cccc(CN2CCC3(CC2)CCN(C(=O)c2ccc4c(c2)C(N(C(=O)c2ccccc2Cl)C2CC2)CC4)C3)c1 (centres unmarked) [IND_CC-540, 2-Chloro-N-[6-[8-[(3-cyano-phenyl)-methyl]-2,8-diazaspiro[4.5]decane-2-carbonyl]-2,3-dihydro-1H-inden-1-yl]-N-cyclopropyl-benzamide]"
13,91,"O=C(NC1CCc2ccc(C(=O)N3CCC4(CCN(Cc5csnn5)CC4)C3)cc21)c1ccccc1Cl (centres unmarked) [IND_CC-555, 2-Chloro-N-[6-[8-([1,2,3]thiadiazol-4-yl-methyl)-2,8-diazaspiro[4.5]decane-2-carbonyl]-2,3-dihydro-1H-inden-1-yl]-benzamide]"
14,80,"CN(C(=O)c1ccccc1Cl)C1CCc2ccc(C(=O)N3CCC4(CCN(Cc5cccc(C#N)c5)CC4)C3)cc21 (centres unmarked) [IND_CC-572, 2-Chloro-N-[6-[8-[(3-cyano-phenyl)-methyl]-2,8-diazaspiro[4.5]decane-2-carbonyl]-2,3-dihydro-1H-inden-1-yl]-N-methyl-benzamide]"
